Where only a bound is given, the exact number is not on record here.

The subject of one assay is hepatocellular carcinoma cell line Hub-7. The assay can be described thus: Cell proliferation assay (CELL-TITER GLO cell viability). The class given is cell-based. The settings on record: 24 h, Hub-7 cells, 24 h incubation, read-out: Inhibition of Cell Proliferation EC50. The method, then: The activity of a test compound was determined in a cell proliferation assay using the hepatocellular carcinoma cell line […]. Cells (4,000 cells per well) were seeded in a 96-well tissue culture plate. After incubated overnight, a test compound was added at predetermined concentrations, starting with 10 μM and followed by 3-fold serial dilution. After the cells were incubated for 24 h, cell viability was determined using a CELL-TITER GLO® assay. The CELL-TITER GLO® reagent (50 μL) was added to each well and the luminescence was measured by a multimode microplate reader after a brief period of shaking. EC50 values were determined for the test compound. The results are summarized in Table 1, wherein A represents a value no greater than 100 nM, B represents a value greater than 100 nM but no greater than 500 nM, C represents a value greater than 500 nM but no greater than 2 μM, D represents a value greater than 2 μM but no greater than 10 μM; and E represents a value greater than 10 μM.
Take `C#CC(=O)N(c1cccc2nsnc12)C1(C(=O)NCc2ccccc2)CCOCC1` [A161, 4-(N-(Benzo[c][1,2,5]thiadiazol-4-yl)propiolamido)-N-benzyltetrahydro-2H-pyran-4-carboxamide]: the EC50 is at most 100 nM. As to `C#CC(=O)N(c1cccc(O)c1)C(C(=O)NCc1ccccc1)c1cccc(N)c1` (stereo not shown) [A37, N-(1-(3-Aminophenyl)-2-(benzylamino)-2-oxoethyl)-N-(3-hydroxyphenyl)-propiolamide], the EC50 was at most 100 nM. In the case of `C#CC(=O)N(c1cccc(Cl)c1)C1(C(=O)NCc2ccccc2)CCCOC1` (stereo not shown) [A174, N-Benzyl-3-(N-(3-chlorophenyl)propiolamido)tetrahydro-2H-pyran-3-carboxamide], the EC50 was at most 100 nM. As for `C#CC(=O)N(c1cccc(Cl)c1)C(C(=O)NCc1ccccc1)c1ccccc1F` (stereo not shown) [A90, N-(2-(Benzylamino)-1-(2-fluorophenyl)-2-oxoethyl)-N-(3-chlorophenyl)-propiolamide], the EC50 is at most 100 nM. The same measure, in the same setting: for `C#CC(=O)N(c1cccc(Cl)c1)C(C(=O)NCC1CCOCC1)c1ccccc1` (stereo not shown) [A180, N-(3-Chlorophenyl)-N-(2-oxo-1-phenyl-2-(((tetrahydro-2H-pyran-4-yl)methyl)-amino)ethyl)propiolamide] the value was at most 100 nM; for `C#CC(=O)N(c1ccc2scnc2c1)C(C(=O)NCc1ccccc1)c1ccccc1` (stereo not shown) [A88, N-(Benzo[d]thiazol-5-yl)-N-(2-(benzylamino)-2-oxo-1-phenylethyl)-propiolamide], at most 100 nM; for `C#CC(=O)N(c1cccc(Cl)c1)C1(C(=O)NCc2cccc(Cl)c2)CCOCC1` [A182, N-(3-Chlorobenzyl)-4-(N-(3-chlorophenyl)propiolamido)tetrahydro-2H-pyran-4-carboxamide], at most 100 nM.

Turning to `C#CC(=O)N(c1ccc(C(=O)OC)cc1)C(C(=O)NCc1ccccc1)c1ccc(N)cc1` (stereo not shown) [A69, Methyl 4-(N-(1-(4-aminophenyl)-2-(benzylamino)-2-oxoethyl)propiolamido)-benzoate], the EC50 was at most 100 nM. The same measure, in the same setting: for `C=CC(=O)N(c1cccc(Cl)c1)C1(C(=O)NCc2ccccc2)CCOCC1` [B5, N-Benzyl-4-(N-(3-chlorophenyl)acrylamido)tetrahydro-2H-pyran-4-carboxamide] the value was over 10000 nM; for `C#CC(=O)N(c1cccc(Cl)c1)C(C(=O)NCC1COC1)c1ccccc1` (stereo not shown) [A181, N-(3-Chlorophenyl)-N-(2-((oxetan-3-ylmethyl)amino)-2-oxo-1-phenylethyl)-propiolamide], at most 100 nM. `C#CC(=O)N(c1cccc(S(C)(=O)=O)c1)C(C(=O)NC(C)(C)C)c1ccc(N)cc1` (stereo not shown) [A6, N-(1-(4-Aminophenyl)-2-(tert-butylamino)-2-oxoethyl)-N-(3-(methylsulfonyl)phenyl)propiolamide]: the EC50 was in the range of 2000 to 10000 nM.

On to `C#CC(=O)N(c1cccc(Cl)c1)C(C(=O)NCc1ccccc1)C1CC1` (stereo not shown) [A72, N-(2-(benzylamino)-1-cyclopropyl-2-oxoethyl)-N-(3-chlorophenyl)propiolamide], for which the EC50 lay within 100 to 500 nM. For `C#CC(=O)N(c1cccc(Cl)c1)C1(C(=O)NCC(=O)N2CCCC(O)C2)CCOCC1` (stereo not shown) [A183, 4-(N-(3-Chlorophenyl)propiolamido)-N-(2-(3-hydroxypiperidin-1-yl)-2-oxoethyl)tetrahydro-2H-pyran-4-carboxamide], the EC50 lay in the range of 2000 to 10000 nM. In the case of `C#CC(=O)N(c1cccc(Cl)c1)C1(C(=O)NCC(=O)NCc2ccccc2O)CCOCC1` [A185, 4-(N-(3-Chlorophenyl)propiolamido)-N-(2-((2-hydroxybenzyl)amino)-2-oxoethyl)tetrahydro-2H-pyran-4-carboxamide], the EC50 was 100 to 500 nM. As for `C#CC(=O)N(c1cccc(C(N)=O)c1)C(C(=O)NCc1ccccc1)c1ccc(N)cc1` (stereo not shown) [A62, 3-(N-(1-(4-Aminophenyl)-2-(benzylamino)-2-oxoethyl)propiolamido)-benzamide], the EC50 is over 10000 nM. Still for that read-out and setting: for `C#CC(=O)N(Cc1ccc(C(=O)OC)cc1)C(C)C(=O)NCc1ccccc1` (stereo not shown) [A84, Methyl 4-((N-(1-(benzylamino)-1-oxopropan-2-yl)propiolamido)methyl)-benzoate] the value was 100 to 500 nM. Still for that read-out and setting: for `C#CC(=O)N(c1ccc(S(C)(=O)=O)cc1)C(C(=O)NC(C)(C)C)c1ccc(N)cc1` (stereo not shown) [A15, N-(1-(4-Aminophenyl)-2-(tert-butylamino)-2-oxoethyl)-N-(4-(methylsulfonyl)-phenyl)propiolamide] the value was 2000 to 10000 nM. On to `O=C(CCl)N(c1cccc2nsnc12)C1(C(=O)NCCc2ccccc2)CCOCC1` [C29, 4-(N-(Benzo[c][1,2,5]thiadiazol-4-yl)-2-chloroacetamido)-N-phenethyltetrahydro-2H-pyran-4-carboxamide], for which the EC50 was 500 to 2000 nM. As for `C#CC(=O)N(c1ccc(OC)cc1OC)C1(C(=O)NCc2ccccc2)CCOCC1` [A157, N-Benzyl-4-(N-(2,4-dimethoxyphenyl)propiolamido)tetrahydro-2H-pyran-4-carboxamide], the EC50 was at most 100 nM. Regarding `C#CC(=O)N(Cc1cccc(O)c1)C1(C(=O)NCc2ccccc2)CCOCC1` [A138, N-Benzyl-4-(N-(3-hydroxybenzyl)propiolamido)tetrahydro-2H-pyran-4-carboxamide], the EC50 is at most 100 nM.

For `C#CC(=O)N(c1cccc(Cl)c1F)C(C(=O)NCc1ccccc1)c1ccccc1` (stereo not shown) [A81, N-(2-(Benzylamino)-2-oxo-1-phenylethyl)-N-(3-chloro-2-fluorophenyl)-propiolamide], the EC50 was in the range of 100 to 500 nM. The same measure, in the same setting: for `C#CC(=O)N(c1cccc(CO)c1)C(C(=O)NCc1ccccc1)c1ccc(N)cc1` (stereo not shown) [A56, N-(1-(4-Aminophenyl)-2-(benzylamino)-2-oxoethyl)-N-(3-(hydroxymethyl)-phenyl)propiolamide] the value was 2000 to 10000 nM; for `C#CC(=O)N(c1ccc2c(c1)OCO2)C1(C(=O)NCc2ccccc2)CCOCC1` [A151, 4-(N-(Benzo[d][1,3]dioxol-5-yl)propiolamido)-N-benzyltetrahydro-2H-pyran-4-carboxamide], 100 to 500 nM. Still for that read-out and setting: for `C#CC(=O)N(c1cccc(C(=O)OC)c1)C(C(=O)NC(C)(C)C)c1ccc(N)cc1` (stereo not shown) [A8, Methyl 3-(N-(1-(4-aminophenyl)-2-(tert-butylamino)-2-oxoethyl)-propiolamido)-benzoate] the value was at most 100 nM; for `CC#CC(=O)N(c1ccc2c(cnn2C)c1)C1(C(=O)NCc2ccccc2)CCCC(C(=O)OC)C1` (stereo not shown) [A127, Methyl3-(benzylcarbamoyl)-3-(N-(1-methyl-1H-indazol-5-yl)but-2-ynamido)-cyclohexane-1-carboxylate], over 10000 nM; for `Cn1ncc2cc(N(C(=O)CO)C3(C(=O)NCc4ccccc4)CCOCC3)ccc21` [D3, N-Benzyl-4-(2-hydroxy-N-(1-methyl-1H-indazol-5-yl)acetamido)tetrahydro-2H-pyran-4-carboxamide], over 10000 nM. For `COc1ccc(N(C(=O)CCl)C2(C(=O)NCc3ccccc3)CCC(F)(F)CC2)cc1Cl` [C27, N-Benzyl-1-(2-chloro-N-(3-chloro-4-methoxyphenyl)acetamido)-4,4-difluoro-cyclohexane-1-carboxamide], the EC50 is at most 100 nM. Same read-out and setting: for `C#CC(=O)N(c1ccc(Cl)cc1)C(C(=O)NCc1ccccc1)c1ccc(N)cc1` (stereo not shown) [A52, N-(2-(benzylamino)-1-(4-aminophenyl)-2-oxoethyl)-N-(4-chlorophenyl)propiolamide] the value was at most 100 nM; for `C#CC(=O)N(c1ccc(C(N)=O)cc1)C(C(=O)NC(C)(C)C)c1ccc(N)cc1` (stereo not shown) [A10, 4-(N-(1-(4-Aminophenyl)-2-(tert-butylamino)-2-oxoethyl)propiolamido)-benzamide], over 10000 nM. Still for that read-out and setting: for `C#CC(=O)N(c1cccc(Cl)c1)C1(C(=O)NCc2ccccc2)CCCC(=O)C1` (stereo not shown) [A172, N-Benzyl-1-(N-(3-chlorophenyl)propiolamido)-3-oxocyclohexanecarboxamide] the value was at most 100 nM; for `C#CC(=O)N(c1ccc2scnc2c1)C1(C(=O)NCc2ccccc2)CCOCC1` [A155, 4-(N-(Benzo[d]thiazol-5-yl)propiolamido)-N-benzyltetrahydro-2H-pyran-4-carboxamide], 100 to 500 nM; for `C#CC(=O)N(c1cccc(OC)c1)C(C(=O)NC(C)(C)C)c1ccc(N)cc1` (stereo not shown) [A7, N-(1-(4-Aminophenyl)-2-(tert-butylamino)-2-oxoethyl)-N-(3-methoxyphenyl)-propiolamide], 100 to 500 nM. Regarding `C#CC(=O)N(c1ccc(OC)c(Cl)c1)C(C(=O)NC(C)(C)C)c1cccc(N)c1` (stereo not shown) [A21, N-(1-(3-Aminophenyl)-2-(tert-butylamino)-2-oxoethyl)-N-(3-chloro-4-methoxyphenyl)propiolamide], the EC50 was 100 to 500 nM. `C#CC(=O)N(c1ccn(C)c(=O)c1)C(C(=O)NCc1ccccc1)c1ccccc1` (stereo not shown) [A102, N-(2-(Benzylamino)-2-oxo-1-phenylethyl)-N-(1-methyl-2-oxo-1,2-dihydropyridin-4-yl)propiolamide]: the EC50 was 2000 to 10000 nM. As for `Cn1ncc2cc(N(C(=O)C#CCO)C3(C(=O)NCc4ccccc4)CCOCC3)ccc21` [A131, N-Benzyl-4-(4-hydroxy-N-(1-methyl-1H-indazol-5-yl)but-2-ynamido)tetrahydro-2H-pyran-4-carboxamide], the EC50 is over 10000 nM. Same read-out and setting: for `C#CC(=O)N(c1ccc(O)cc1)C(C(=O)NC(C)(C)C)c1ccc(N)cc1` (stereo not shown) [A12, N-(1-(4-Aminophenyl)-2-(tert-butylamino)-2-oxoethyl)-N-(4-hydroxyphenyl)-propiolamide] the value was over 10000 nM.

Staying with this assay, now noted: Hub-7 cells, 24 h incubation, read-out: Inhibition of Cell Proliferation EC50.
Regarding `COc1ccc(N(C(=O)C#CCO)C(C(=O)NCCc2ccccc2)c2cccs2)cc1Cl` (stereo not shown) [A118], the EC50 lay within 2000 to 10000 nM.

These data come from patent US12516016B2, “GPX4 inhibitors, pharmaceutical compositions thereof, and their use for treating GPX4-mediated diseases” (EUBULUS BIOTHERAPEUTICS (HONG KONG) LIMITED, priority 2020, dated 2026).
